{
  "source": "patent US6716851B2",
  "about": "“Substituted 2-aryl-4-arylaminopyrimidines and analogs as activators or caspases and inducers of apoptosis and the use thereof” (Cytovia, Inc., priority 2000, dated 2004)",
  "key": {"MCF-7 cells": {"tested_on": "MCF-7 cells", "assay": "Cell proliferation assay (GI50) in MCF-7 cells", "format": "cell-based", "details": "Homo sapiens, MCF7; MCF-7, 48 h", "protocol": "[Worded in the source for another cell line; this cell line is reported under the same test.] (§1) T-47D cells were grown and harvested as in Example 221. An aliquot of 90 μl of cells (2.2×10^4 cells/ml) was added to a well of a 96-well microtiter plate containing 10 μl of a 10% DMSO in RPMI-1640 media solution containing 1 nM to 100 μM of 4-(3-methoxyanilino)-2-(2-pyridinyl)-6-(trifluoromethyl)pyrimidine (0.1 nM to 10 μM final). An aliquot of 90 μl of cells was added to a well of a 96-well microtiter plate containing 10 μl of a 10% DMSO in RPMI-1640 media solution without compound as the control sample for maximal cell proliferation (AMax). The samples were mixed by agitation and then incubated at 37° C. for 48 h in a 5% CO2-95% humidity incubator. After incubation, the samples were removed from the incubator and 20 μl of CellTiter 96 AQueous One Solution Cell Proliferation^TM reagent (Promega) was added. The samples were mixed by agitation and incubated at 37° C. for 2-4 h in a 5% CO2-95% humidity incubator. Using an absorbance plate reader (Model 1420 Wallac Instruments), an initial reading (T=0) was made approximately 1-2 min after addition of the solution, employing absorbance at 490 nm. This determines the possible background absorbance of the test compounds. No absorbance for 4-(3-methoxyanilino)-2-(2-pyridinyl)-6-(trifluoromethyl)pyrimidine was found at 490 nm. After the 2-4 h incubation, the samples were read for absorbance as above (ATest). […]"}, "ZR-75-1 cells [1]": {"tested_on": "ZR-75-1 cells", "assay": "Cell proliferation assay (GI50) in ZR-75-1 cells", "format": "cell-based", "details": "Homo sapiens; ZR 75-1, 48 h", "protocol": "[Worded in the source for another cell line; this cell line is reported under the same test.] as §1"}, "MDA-MB-435 cells": {"tested_on": "MDA-MB-435 cells", "assay": "Cell proliferation assay (GI50) in MDA-MB-435 cells", "format": "cell-based", "details": "Homo sapiens, MDA-MB-435, 48 h", "protocol": "[Worded in the source for another cell line; this cell line is reported under the same test.] as §1"}, "[2]": {"tested_on": "PC-3 (prostate cancer cell line)", "assay": "Cell proliferation assay (GI50) in PC-3 cells", "format": "cell-based", "details": "Homo sapiens, PC-3, 48 h", "protocol": "[Worded in the source for another cell line; this cell line is reported under the same test.] as §1"}, "[3]": {"tested_on": "MES-SA (sarcoma cell line)", "assay": "Cell proliferation assay (GI50) in MES-SA cells", "format": "cell-based", "details": "Homo sapiens, 48 h", "protocol": "[Worded in the source for another cell line; this cell line is reported under the same test.] as §1"}, "ZR-75-1 cells [4]": {"tested_on": "ZR-75-1 cells", "assay": "Caspase cascade activation (N-(Ac-DEVD)-N'-ethoxycarbonyl-R110 fluorogenic substrate) in ZR-75-1 cells", "format": "cell-based, Human", "details": "ZR-75-1, 48 h incubation", "summary_of_the_method": "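Cells (0.65×10^6/ml) exposed 48 h at 37 °C to compound (0.016-10 μM final), then lysed with 14 μM DEVD-R110 substrate buffer (PIPES pH 7.2, DTT, lysolecithin) for 3 h at room temperature. Net fluorescence (485/530 nm) relative to control; EC50 by sigmoidal dose-response.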"}},
  "data": [
    {"smiles": "COc1cccc(Nc2cc(C(F)(F)F)nc(-c3ccccn3)n2)c1", "note": "[Compound A, 4-(3-methoxyanilino)-2-(2-pyridinyl)-6-(trifluoromethyl)pyrimidine]", "values": [
      {"measurement": "GI50", "setting": "MCF-7 cells", "value": 100, "unit": "nM"},
      {"measurement": "GI50", "setting": "ZR-75-1 cells [1]", "value": 100, "unit": "nM"},
      {"measurement": "GI50", "setting": "MDA-MB-435 cells", "value": 4500, "unit": "nM"},
      {"measurement": "GI50", "setting": "[2]", "value": "> 10000", "unit": "nM"},
      {"measurement": "GI50", "setting": "[3]", "value": "> 10000", "unit": "nM"},
      {"measurement": "EC50", "setting": "ZR-75-1 cells [4]; Homo sapiens, caspase activation potency", "value": 0.14, "unit": "µM"},
      {"measurement": "ZR Ratio 48 hr", "setting": "ZR-75-1 cells [4]; caspase activity: ratio of net RFU of test compound to control", "value": 3.6}
    ]}
  ]
}
